Test results from US5556858A, “Cis-2-[(4-heteroaryl-1-piperazinyl)alkyl] hexahydro-1H-isoindole-1,3 (2H)-diones and related compounds and their therapeutic utility” (Hoechst-Roussel Pharmaceuticals, Inc., priority 1995, dated 1996).
Where two headings read alike, the source gives them in different places.

What was measured:
apomorphine climbing = assay: climbing mice assay (antipsychotic activity); type: in vivo, mice (CK-1 male); conditions: Mus musculus; ip; apomorphine 1.5 mg/kg subcutaneously; climbing score vs control
Protocol: Subject […] male mice (23-27 grams) are group-housed under standard laboratory conditions. The mice are individually placed in wire mesh stick cages (4"×10") and are allowed one hour for adaption and exploration of the new environment.
For evaluation of climbing, 3 readings are taken at 10, 20, and 30 minutes-after apomorphine administration according to the following scale: […]
Mice consistently climbing before the injection of apomorphine are discarded.
With full-developed apomorphine climbing, the animals are hanging on to the cage walls, rather motionless, over long periods of time. By contrast, climbs due to mere motor stimulation usually only last a few seconds.
The climbing scores are individually totaled (maximal score: 6 per mouse over 3 readings) and the total score of the control group (vehicle intraperitoneally-apomorphine subcutaneously) is set to 100%.

[1] = tested on: phenylquinone induced writhing; assay: phenyl p-quinone writhing assay (analgesia); type: in vivo, mice; conditions: Mus musculus, sc, dose effecting approximately 50% inhibition of writhing
From the text: Some of the compounds of the present invention are also useful as analgetics due to their ability to alleviate pain in mammals. […] Exptl. Biol. Med., 95:729 (1957). Thus, for instance, the subcutaneous dose effecting an approximately 50% inhibition of writhing (ED50) in mice produced in this assay is as shown in Table 2.

[2] = read-out: INHIBITION OF PHE[…] WRITHING ED50

SMILES: COc1cc(C(C)=O)ccc1OCCCN1CCC(c2noc3ccccc23)CC1 [1-[4-[3-[4-(1,2-benzisoxazol-3-yl)-1-piperidinyl]propoxy]-3-methoxyphenyl]ethanone]
- ED50 (apomorphine climbing): 0.67 mg/kg
- ED50 [1]: 0.17 mg/kg

SMILES: COc1cc(C(C)=O)ccc1OCCCN1CCC(c2noc3cc(F)ccc23)CC1 [1-[4-[3-[4-(6-fluoro-1,2-benzisoxazol-3-yl)-1-piperidinyl]propoxy]-3-methoxyphenyl]ethanone]
- ED50 (apomorphine climbing): 0.095 mg/kg
- ED50 [1]: 0.03 mg/kg

SMILES: CC(C)=CCN1CCC2(C)c3cc(O)ccc3CC1C2C (centres unmarked) [Pentazocine, reference compound]
- ED50 [1, 2]: 1.3 mg/kg

SMILES: CCC(=O)O[C@](Cc1ccccc1)(c1ccccc1)[C@H](C)CN(C)C [Propoxyphene, reference compound]
- ED50 [1, 2]: 3.9 mg/kg

SMILES: COc1cc(C(C)=O)ccc1OCCCN1CCN(c2n[nH]c3ccccc23)CC1 [1-[4-[3-[4-(1H-indazol-3-yl)-1-piperazinyl]propoxy]-3-methoxyphenyl]ethanone]
- ED50 (apomorphine climbing): 0.98 mg/kg
- ED50 [1]: 0.06 mg/kg
